# Experimental data: US6218427A, “Chromene-3-carboxylate derivatives” (Shionogi & Co., Ltd., priority 1996, dated 2001)
# Key:
# foam cells = details: American Journal of Pathology vol. 146, No.4, 819-826 (1995); cited from earlier work
# [1] = target: T1, endothelin A (ETA) receptor (Rattus norvegicus, UniProt P26684); test: Measurement of affinity for endothelin A (ETA) receptor: inhibition of 125I-labeled endothelin-1 binding to A7r5 cells; details: 125I-endothelin-1 8.3 pM, A7r5 cells derived from rat aorta, 37° C., 1 h
# T1 construct: smooth muscle A7r5 cells derived from rat aorta; endogenous in cells; host or cells: A7r5 (rat aorta smooth muscle cells)
# T1 sequence (P26684 21-426): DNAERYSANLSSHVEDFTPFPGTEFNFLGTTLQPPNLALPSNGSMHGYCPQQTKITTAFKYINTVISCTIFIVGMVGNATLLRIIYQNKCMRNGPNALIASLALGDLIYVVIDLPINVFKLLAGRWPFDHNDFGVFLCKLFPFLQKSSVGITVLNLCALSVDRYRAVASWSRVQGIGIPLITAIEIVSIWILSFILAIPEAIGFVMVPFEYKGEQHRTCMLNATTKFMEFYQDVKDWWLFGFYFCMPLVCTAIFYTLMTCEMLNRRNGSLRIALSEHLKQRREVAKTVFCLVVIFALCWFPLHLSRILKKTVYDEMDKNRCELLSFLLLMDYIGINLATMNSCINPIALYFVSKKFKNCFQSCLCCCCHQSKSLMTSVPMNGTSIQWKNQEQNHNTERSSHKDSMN
# Protocol: Experiment 1 Measurement of affinity for endothelin A (ETA) receptor
# Affinities for the ETA receptor were measured from the potency for inhibition of binding of ^125 I-labeled endotheline-1 to smooth muscle A7r5 cells derived from rat aorta. In brief, the cells cultured in 48-well plates were washed with buffer, and incubated in 0.3 ml of Hepes buffered Hanks' solution containing labeled endothelin-1 (8.3 pM) and various kinds of protease inhibitors in the presence or absence of the compound of the present invention at 37° C. for 1 h. The incubation was terminated by rapid removal of the incubation medium and the cells were washed with a HEPES buffered Hanks' solution. The radioactivity of ^125 I-labeled endothelin-1 bound to the cells was determined with a gamma-counter. The specific binding was calculated by subtracting the non-specific binding which was determined in the presence of 10^-7 M non radioactive endothelin-1 from the total binding.
# [2] = Effect on peripheral circulatory insufficiency (tail blood flow after 3° C. immersion); assay type: in vivo, Wistar rats
# Protocol: Experiment 4 Effect on peripheral circulatory insufficiency
# Using Wistar rats, the peripheral circulatory insufficiency model was produced by immersing the rat tail tip (2-3 cm) in 1° C. water for 9 h, and experiments were performed at 3 weeks after above treatment. Tail blood flows in peripheral circulatory insufficiency rats were measured with laser-Doppler flowmetry with a tablet probe during immersing the whole tail in 3° C. water (30 min) The probe was held directly adjacent to the ventral surface of the tail, approximately 14 cm from the tip. To evaluate the effects of the compound of the present invention, peripheral circulatory insufficiency rats administered by the compound of the present invention (I-36, 30 mg/kg, po) at 2 h before 3° C. immersion.
# In the normal Wistar rats, tail blood flow was transiently declined after 3° C. immersion, and gradually recovered up to about 70 % of basal level at 25 to 30 min after the immertion (normal rat). On the other hand, in the peripheral circulatory insufficiency rats, the tail blood flow measured immediately before administration of the compound of the present invention recovered to no more than 40% of basal level (peripheral circulatory insufficiency rat). […] Three days after administration of the compound of the present invention, when the circulatory effects of the compound was supposed to fully disappear, tail blood flows during 3° C. immersion were measured again. […] For statistic analysis, Dunnett's test was used.
# [3] = target: T2, endothelin B (ETB) receptor (Sus scrofa, UniProt P35463); test: Measurement of affinity for endothelin B (ETB) receptor: inhibition of 125I-labeled endothelin-3 binding to COS-7 cells expressing pig ETB receptor; details: 125I-endothelin-3 25 pM, 37° C., 1 h
# T2 construct: expressed in transfected cells; host or cells: COS-7
# T2 sequence (P35463 27-443): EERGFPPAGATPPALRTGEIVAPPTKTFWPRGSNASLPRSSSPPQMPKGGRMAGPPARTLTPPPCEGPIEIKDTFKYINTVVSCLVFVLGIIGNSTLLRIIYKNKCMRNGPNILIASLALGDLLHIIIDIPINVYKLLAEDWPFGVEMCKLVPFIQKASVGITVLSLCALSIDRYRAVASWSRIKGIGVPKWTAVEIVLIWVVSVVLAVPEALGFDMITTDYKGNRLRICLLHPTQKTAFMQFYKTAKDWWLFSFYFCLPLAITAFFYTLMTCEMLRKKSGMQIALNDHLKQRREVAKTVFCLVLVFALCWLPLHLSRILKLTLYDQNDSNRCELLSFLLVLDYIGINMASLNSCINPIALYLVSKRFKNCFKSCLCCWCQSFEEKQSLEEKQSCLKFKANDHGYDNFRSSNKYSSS
# Protocol: Experiment 2 Measurement of affinity for endothelin B (ETB) receptor
# Affinities for the ETB receptor were measured from the potency for inhibiting ^125 I-labeled endothelin-3 binding to COS-7 cells expressing the pig endothelin ETB receptor. In brief, a plasmid vector to which the pig endothelin ETB receptor gene was inserted was transfected to COS-7 cells by the lipofectin method. After the cells were washed with buffer, 10^3 -10^4 cells were dispersed in HEPES buffered Hanks' solution (0.1 ml) containing 25 pM of 125I labeled endothelin-3 and various kinds of protease inhibitors and incubated in the presence or absence of the compound of the present invention at 37° C. for 1 h. After completion of the reaction, the radioactivity bound was trapped by a glass fiber filter and measured with a gamma counter. Specific binding was calculated by subtracting the non-specific binding measured in the presence of 10^-7 M non-radioactive endothelin-3 from the total binding.
# macrophage foam cell = test: Inhibition of macrophage foam cell formation in high-cholesterol-diet hamsters (aortic arch); assay type: in vivo, golden Syrian hamster; details: 6 weeks, 8 hamsters, p < 0.01 vs HCD group (HCD 25.7 ± 2.7)
# Excerpt: Experiment 3 Inhibition of macrophage foam cell formation
# Male golden Syrian hamster of 12 weeks old, were used for the experiment. Hamsters were classified into a group wherein hamsters were fed with usual powder diet (OD group), a group wherein hamsters were fed with diet containing high cholesterol (2%) (HCD group) and a group wherein hamsters were fed with diet containing high cholesterol (2%) and the compound I-36 of the present invention (HCD +I-36 group) and animals in each group were fed for 6 weeks. The added amount of the compound 1-36 of the present invention was 0.01, 0.03 and 0.1% and they were equivalent to 6, 19, 66 mg/kg, respectively, calculated from food intake. Each group contains 8 hamsters.
# After feeding for 6 weeks, hamsters were anesthetized with pentobarbital and subjected to thoracotomy to expose a heart. Arch of the aorta was removed after reperfusion with phosphate-buffered 10% formalin solution from the ventricle. The arch of the aorta was opened longitudinally and the number of foam cells in a microphotograph after staining with oil red O was counted with a colony counter to calculate the number per aortic arch area. The significant difference between the groups was examined by Dunnett's multiple comparison test.
SMILES,IC50 [1] [nM],IC50 [3] [nM],other results
Cc1noc(NS(=O)(=O)c2cccc3c(N(C)C)cccc23)c1C [BMS-182874],,,number and size of foam cells (foam cells): reduce the number and size of foam cells
CCCCCOC1=C(C(=O)O)C(c2ccc3c(c2)OCO3)Oc2ccc(OC(C)C)cc21 (stereo not drawn) [Compound I-58],0.48,150,
"C=CCCCOC1=C(C(=O)O)C(c2ccc3c(c2)OCO3)Oc2ccc(OC(C)C)cc21 (stereo not drawn) [Compound I-65, 2-(Benzo[1,3]dioxol-5-yl)-6-isopropoxy-4-(4-pentenyloxy-1-yl)-2H-chromen-3-carboxylic acid]",0.38,130,
COC(CCCOC1=C(C(=O)O)C(c2ccc3c(c2)OCO3)Oc2ccc(OC(C)C)cc21)OC (stereo not drawn) [Compound I-70],1.2,270,
CCCCC1=C(C(=O)O)C(c2ccc3c(c2)OCO3)Oc2ccc(OC(C)C)cc21 (stereo not drawn) [Compound I-76],0.73,610,
"CCCCCC1=C(C(=O)O)C(c2ccc3c(c2)OCO3)Oc2ccc(OC(C)C)cc21 (stereo not drawn) [Compound I-77, 2-(Benzo[1,3]dioxol-5-yl)-6-isopropoxy-4-pentyl-2H-chromen-3-carboxylic acid]",0.32,150,
"CC(C)Oc1ccc2c(c1)C(C1CCCC1)=C(C(=O)O)C(c1ccc3c(c1)OCO3)O2 (stereo not drawn) [Compound I-79, 2-(Benzo[1,3]dioxol-5-yl)-4-cyclopentyl-6-isopropoxy-2H-chromen-3-carboxylic acid]",0.53,350,
"Cc1ccc(C2=C(C(=O)O)C(c3ccc4c(c3)OCO4)Oc3ccc(OC(C)C)cc32)s1 (stereo not drawn) [Compound I-80, 2-(Benzo[1,3]dioxol-5-yl)-6-isopropoxy-4-(5-methyl-thiophen-2-yl)-2H-chromen-3-carboxylic acid]",1,1800,
CC(C)CCC1=C(C(=O)O)C(c2ccc3c(c2)OCO3)Oc2ccc(OC(C)C)cc21 (stereo not drawn) [Compound I-83],1.9,480,
CC(C)Oc1ccc2c(c1)C(CC1CCCCC1)=C(C(=O)O)C(c1ccc3c(c1)OCO3)O2 (stereo not drawn) [Compound I-85],0.58,46,
C=CCCC1=C(C(=O)O)C(c2ccc3c(c2)OCO3)Oc2ccc(OC(C)C)cc21 (stereo not drawn) [Compound I-86],2.7,950,
CC(C)Oc1ccc2c(c1)C(CCCCO)=C(C(=O)O)C(c1ccc3c(c1)OCO3)O2 (stereo not drawn) [Compound I-87],2.3,1800,

# Further lines, with some results ahead:
IC50 [1] [nM],IC50 [3] [nM],SMILES,other results
0.89,180,"COc1ccc(C2=C(C(=O)O)C(c3ccc4c(c3)OCO4)Oc3ccc(OC(C)C)cc32)cc1 (stereo not drawn) [Compound I-36, 2-(Benz[1,3]dioxol-5-yl)-6-isopropoxy-4-(4-methoxy-phenyl)-2H-chromen-3-carboxylic acid]","skin blood flow (%), average from 20-25 min after cold exposure ([2]; insufficiency rat + I-36, 30 mg/kg, po, 2 h before 3° C. immersion, n = 4, p < 0.01 vs insufficiency rat control (37.20 ± 3.29)): 62.02 ± 1.23%; recovery of the tail blood flow ([2]; insufficiency rat + I-36, 30 mg/kg, po, in words): remarkable and significant; recovery of the blood flow after wash out ([2]; three days after administration of I-36, in words): same as that before administration; skin blood flow (%), average from 20-25 min after cold exposure ([2]; wash out: three days after administration of I-36, n = 4): 44.19 ± 5.83%; Aortic foam cell numbers / mm^2 (Mean ± SE) (macrophage foam cell; HCD + 0.01% I-36 in diet (equivalent to 6 mg/kg)): 10.1 ± 1.7 / mm^2; Aortic foam cell numbers / mm^2 (Mean ± SE) (macrophage foam cell; HCD + 0.03% I-36 in diet (equivalent to 19 mg/kg)): 9.1 ± 0.8 / mm^2; Aortic foam cell numbers / mm^2 (Mean ± SE) (macrophage foam cell; HCD + 0.1% I-36 in diet (equivalent to 66 mg/kg)): 8.8 ± 1.1 / mm^2"
1.5,1300,CCCOC1=C(C(=O)O)C(c2ccc3c(c2)OCO3)Oc2ccc(OC(C)C)cc21 (stereo not drawn) [Compound I-56],
0.41,780,CCCCOC1=C(C(=O)O)C(c2ccc3c(c2)OCO3)Oc2ccc(OC(C)C)cc21 (stereo not drawn) [Compound I-57],
0.81,730,CC(C)OC1=C(C(=O)O)C(c2ccc3c(c2)OCO3)Oc2ccc(OC(C)C)cc21 (stereo not drawn) [Compound I-59],
0.67,78,CCCCCCOC1=C(C(=O)O)C(c2ccc3c(c2)OCO3)Oc2ccc(OC(C)C)cc21 (stereo not drawn) [Compound I-67],
0.95,880,CC(C)Oc1ccc2c(c1)C(OCCCCCO)=C(C(=O)O)C(c1ccc3c(c1)OCO3)O2 (stereo not drawn) [Compound I-68],
0.21,58,"COc1ccc(OC2=C(C(=O)O)C(c3ccc4c(c3)OCO4)Oc3ccc(OC(C)C)cc32)cc1 (stereo not drawn) [Compound I-74, 2-(Benzo[1,3]dioxol-5-yl)-6-isopropoxy-4-(4-methoxy-phenoxy)-2H-chromen-3-carboxylic acid]",
0.63,2500,CC(C)Oc1ccc2c(c1)C(C(C)C)=C(C(=O)O)C(c1ccc3c(c1)OCO3)O2 (stereo not drawn) [Compound I-78],
0.5,85,"COc1ccc(CC2=C(C(=O)O)C(c3ccc4c(c3)OCO4)Oc3ccc(OC(C)C)cc32)cc1 (stereo not drawn) [Compound I-81, 2-(Benzo[1,3]dioxol-5-yl)-6-isopropoxy-4-(4-methoxy-benzyl)-2H-chromen-3-carboxylic acid]",
0.62,69,CCCCCCC1=C(C(=O)O)C(c2ccc3c(c2)OCO3)Oc2ccc(OC(C)C)cc21 (stereo not drawn) [Compound I-82],
1.8,710,COCCCC1=C(C(=O)O)C(c2ccc3c(c2)OCO3)Oc2ccc(OC(C)C)cc21 (stereo not drawn) [Compound I-84],
0.27,100,"CCCCSC1=C(C(=O)O)C(c2ccc3c(c2)OCO3)Oc2ccc(OC(C)C)cc21 (stereo not drawn) [Compound I-89, 2-(Benzo[1,3]dioxol-5-yl)-4-butylsulfanyl-6-isopropoxy-2H-chromen-3-carboxylic acid]",
